Assays:
[1] = In vitro radiochemical stability; assay type: physicochemical; conditions: all selected media, 40°C, up to 90 min
Protocol: In vitro radiochemical stabilities of [^18F]1 and [^18F]2 were investigated in 0.9% NaCl solution, Dulbecco’s phosphate buffer, 0.01 M Tris–HCl (pH 7.4 at 21°C), and EtOH at 40°C for 90 min. Samples were taken at 15, 30, 60, and 90 min after incubation and analyzed by radio-TLC and radio-HPLC.

[2] = Ex vivo metabolite studies (radio-HPLC of plasma and brain extracts); assay type: in vivo, CD1 mice; conditions: mice
Protocol: [^18F]1 and [^18F]2 (100 to 150 MBq, 250 to 450 GBq/μmol in 150 μL NaCl 0.9%/10% EtOH) were injected via the tail vein in CD1 male mice (10 to 12 weeks old, 20 to 25 g). Blood and urine samples were obtained at 30 and 60 min p.i. (n = 3 per time point). Twofold extractions of plasma and brain samples (n = 3) were performed using ice-cold MeCN according to the standard protocol established in our group (see [47, 48]). Briefly, plasma samples were obtained by centrifugation of the blood at 4,000×g at 4°C for 10 min, and brain samples were homogenized in ice-cold 50 mM Tris–HCl (pH = 7.4). The samples were vortexed, incubated on ice, and centrifuged at 10,000×g for 3 min. Supernatants were collected, and the precipitates were re-dissolved in ice-cold MeCN for the second extraction. The supernatants from the two extractions were combined, concentrated under a gentle argon stream at 65°C, and analyzed by radio-TLC and gradient analytical HPLC (see ‘Radiochemistry’ section). Aliquots from each extraction supernatant and the precipitates were also taken and quantified by γ counting (Wallac Wizard 1470, Perkin Elmer Inc., Waltham, MA, USA) along with the respective aliquots of intact plasma samples and brain homogenates. A moderate recovery of radioactivity was obtained from plasma samples and brain homogenates (60% to 70%). Radiometabolites of [^18F]17 in the plasma, spleen, and brain were assessed at 30 and 60 min p.i.

CB2R = CB2R (Mus musculus, UniProt P47936); parameters: species or system female CD1 mice; conditions: female, CD1, mouse, in vivo
Protocol: (§1) Female CD1 mice (10 to 12 weeks old, 20 to 25 g) received an injection of 300 to 400 kBq of [^18F]1 or [^18F]2 with specific activities of >450 GBq/μmol in 200 μL of 0.9% NaCl/10% EtOH into the tail vein. The animals were anesthetized (CO2/O2 mixture) for blood and urine sampling and euthanized by luxation of the cervical spine at 5, 30, and 60 min after injection (p.i.) (n = 2 to 5 per time). The organs of interest were removed and weighed, and the activities were measured by γ counting using a calibrated γ counter Wallac Wizard 1470 (Perkin Elmer Inc., Waltham, MA, USA). The percentage of injected dose per gram of wet tissue (% ID/g wet weight) was calculated.
(3 mg/kg i.p. in 0.9% saline, 10 min before the injection of the radiotracer) at 60 min p.i. (n = 2 to 5). The unpaired two-tailed t test was used to compare the results between the groups. We considered differences to be significant at a p value <0.05.

[3] = Ex vivo biodistribution (organ distribution) in mice; conditions: i.v. 300 to 400 kBq, female CD1 mice
Protocol: as §1

Sequence of CB2R (P47936 whole entry): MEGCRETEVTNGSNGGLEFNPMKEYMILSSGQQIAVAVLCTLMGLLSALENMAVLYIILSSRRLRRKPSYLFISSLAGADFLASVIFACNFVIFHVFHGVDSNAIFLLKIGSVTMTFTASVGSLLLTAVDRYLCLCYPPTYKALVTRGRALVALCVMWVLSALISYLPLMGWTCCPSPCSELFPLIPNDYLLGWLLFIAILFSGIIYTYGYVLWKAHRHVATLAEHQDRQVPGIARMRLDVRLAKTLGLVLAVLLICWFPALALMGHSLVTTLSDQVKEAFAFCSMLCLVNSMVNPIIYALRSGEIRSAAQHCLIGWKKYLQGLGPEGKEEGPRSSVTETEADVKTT

CCn1c2ccccc2c2cc(NC(=O)CCc3nc(-c4ccc([18F])cc4Br)no3)ccc21 [[^18F]2]
intact tracer [1]: ≥ 98% | Percentage of total activity in brain samples, 30 min p.i. ([2]; brain homogenate extract, 30 min p.i. of [18F]1 or [18F]2, radio-HPLC): 88% | Percentage of total activity in brain samples, 60 min p.i. ([2]; brain homogenate extract, 60 min p.i. of [18F]1 or [18F]2, radio-HPLC): 43% | Relative percentage of intact tracer and radiometabolites, Plasma 30 min p.i. ([2]; plasma, 30 min p.i. of [18F]1 or [18F]2, radio-HPLC): 2% | Relative percentage of intact tracer and radiometabolites, Plasma 60 min p.i. ([2]; plasma, 60 min p.i. of [18F]1 or [18F]2, radio-HPLC): 2% | Radioactivity uptake, Adrenals, Blocking 60 min (CB2R; 3 mg/kg, 1 h): 3.34 ± 0.15 % ID/g | Radioactivity uptake, Bladder, Blocking 60 min (CB2R; 3 mg/kg, 1 h): 1.77 ± 0.16 % ID/g | Radioactivity uptake, Blood, Blocking 60 min (CB2R; 3 mg/kg, 1 h): 3.40 ± 0.21 % ID/g | Radioactivity uptake, Brain, Blocking 60 min (CB2R; 3 mg/kg, 1 h): 0.28 ± 0.03 % ID/g | Radioactivity uptake, Femur, Blocking 60 min (CB2R; 3 mg/kg, 1 h): 0.61 ± 0.09 % ID/g | Radioactivity uptake, Gonads, Blocking 60 min (CB2R; 3 mg/kg, 1 h): 1.97 ± 0.39 % ID/g | Radioactivity uptake, Heart, Blocking 60 min (CB2R; 3 mg/kg, 1 h): 1.53 ± 0.13 % ID/g | Radioactivity uptake, Kidney, Blocking 60 min (CB2R; 3 mg/kg, 1 h): 4.91 ± 1.51 % ID/g | Radioactivity uptake, Large intestine, Blocking 60 min (CB2R; 3 mg/kg, 1 h): 1.78 ± 0.23 % ID/g | Radioactivity uptake, Liver, Blocking 60 min (CB2R; 3 mg/kg, 1 h): 10.51 ± 1.10 % ID/g | Radioactivity uptake, Lung, Blocking 60 min (CB2R; 3 mg/kg, 1 h): 2.31 ± 0.19 % ID/g | Radioactivity uptake, Muscle, Blocking 60 min (CB2R; 3 mg/kg, 1 h): 0.70 ± 0.06 % ID/g | Radioactivity uptake, Pancreas, Blocking 60 min (CB2R; 3 mg/kg, 1 h): 1.02 ± 0.11 % ID/g | Radioactivity uptake, Plasma, Blocking 60 min (CB2R; 3 mg/kg, 1 h): 5.78 ± 0.07 % ID/g | Radioactivity uptake, Small intestine, Blocking 60 min (CB2R; 3 mg/kg, 1 h): 29.64 ± 5.10 % ID/g | Radioactivity uptake, Spleen, Blocking 60 min (CB2R; 3 mg/kg, 1 h): 0.74 ± 0.10 % ID/g | Radioactivity uptake, Stomach, Blocking 60 min (CB2R; 3 mg/kg, 1 h): 3.24 ± 2.10 % ID/g | Radioactivity uptake, Thymus, Blocking 60 min (CB2R; 3 mg/kg, 1 h): 1.77 ± 0.14 % ID/g | % control, Adrenals (CB2R; 60 min): 137 % control | % control, Bladder (CB2R; 60 min): 122 % control | % control, Blood (CB2R; 60 min): 136 % control | % control, Brain (CB2R; 60 min): 108 % control | % control, Femur (CB2R; 60 min): 106 % control | % control, Gonads (CB2R; 60 min): 86 % control | % control, Heart (CB2R; 60 min): 106 % control | % control, Kidney (CB2R; 60 min): 124 % control | % control, L. intestine (CB2R; 60 min): 96 % control | % control, Liver (CB2R; 60 min): 168 % control | % control, Lung (CB2R; 60 min): 92 % control | % control, Muscle (CB2R; 60 min): 99 % control | % control, Pancreas (CB2R; 60 min): 125 % control | % control, Plasma (CB2R; 60 min): 111 % control | % control, S. intestine (CB2R; 60 min): 109 % control | % control, Spleen (CB2R; 60 min): 110 % control | % control, Stomach (CB2R; 60 min): 146 % control | % control, Thymus (CB2R; 60 min): 171 % control | Radioactivity uptake, Adrenals, Control 5 min [3]: 7.67 ± 2.18 % ID/g | Radioactivity uptake, Adrenals, Control 30 min [3]: 5.38 ± 0.61 % ID/g | Radioactivity uptake, Adrenals, Control 60 min [3]: 2.44 ± 0.72 % ID/g | Radioactivity uptake, Bladder, Control 5 min [3]: 1.01 ± 0.29 % ID/g | Radioactivity uptake, Bladder, Control 30 min [3]: 2.02 ± 0.39 % ID/g | Radioactivity uptake, Bladder, Control 60 min [3]: 1.45 ± 0.57 % ID/g | Radioactivity uptake, Blood, Control 5 min [3]: 2.29 ± 0.48 % ID/g | Radioactivity uptake, Blood, Control 30 min [3]: 3.42 ± 0.39 % ID/g | Radioactivity uptake, Blood, Control 60 min [3]: 2.50 ± 0.42 % ID/g | Radioactivity uptake, Brain, Control 5 min [3]: 0.62 ± 0.22 % ID/g | Radioactivity uptake, Brain, Control 30 min [3]: 0.86 ± 0.34 % ID/g | Radioactivity uptake, Brain, Control 60 min [3]: 0.26 ± 0.07 % ID/g | Radioactivity uptake, Femur, Control 5 min [3]: 1.63 ± 0.93 % ID/g | Radioactivity uptake, Femur, Control 30 min [3]: 1.10 ± 0.03 % ID/g | Radioactivity uptake, Femur, Control 60 min [3]: 0.58 ± 0.11 % ID/g | Radioactivity uptake, Gonads, Control 5 min [3]: 1.14 ± 0.32 % ID/g | Radioactivity uptake, Gonads, Control 30 min [3]: 2.08 ± 0.03 % ID/g | Radioactivity uptake, Gonads, Control 60 min [3]: 2.29 ± 0.57 % ID/g | Radioactivity uptake, Heart, Control 5 min [3]: 3.42 ± 0.57 % ID/g | Radioactivity uptake, Heart, Control 30 min [3]: 2.32 ± 0.24 % ID/g | Radioactivity uptake, Heart, Control 60 min [3]: 1.45 ± 0.20 % ID/g | Radioactivity uptake, Kidney, Control 5 min [3]: 5.86 ± 0.96 % ID/g | Radioactivity uptake, Kidney, Control 30 min [3]: 5.90 ± 0.15 % ID/g | Radioactivity uptake, Kidney, Control 60 min [3]: 3.96 ± 1.25 % ID/g | Radioactivity uptake, Large intestine, Control 5 min [3]: 0.46 ± 0.06 % ID/g | Radioactivity uptake, Large intestine, Control 30 min [3]: 1.25 ± 0.30 % ID/g | Radioactivity uptake, Large intestine, Control 60 min [3]: 1.86 ± 0.36 % ID/g | Radioactivity uptake, Liver, Control 5 min [3]: 31.31 ± 9.91 % ID/g | Radioactivity uptake, Liver, Control 30 min [3]: 8.84 ± 0.83 % ID/g | Radioactivity uptake, Liver, Control 60 min [3]: 6.27 ± 0.68 % ID/g | Radioactivity uptake, Lung, Control 5 min [3]: 4.62 ± 0.21 % ID/g | Radioactivity uptake, Lung, Control 30 min [3]: 3.36 ± 0.02 % ID/g | Radioactivity uptake, Lung, Control 60 min [3]: 2.52 ± 0.60 % ID/g | Radioactivity uptake, Muscle, Control 5 min [3]: 1.00 ± 0.30 % ID/g | Radioactivity uptake, Muscle, Control 30 min [3]: 0.92 ± 0.15 % ID/g | Radioactivity uptake, Muscle, Control 60 min [3]: 0.70 ± 0.27 % ID/g | Radioactivity uptake, Pancreas, Control 5 min [3]: 2.04 ± 0.59 % ID/g | Radioactivity uptake, Pancreas, Control 30 min [3]: 1.71 ± 0.15 % ID/g | Radioactivity uptake, Pancreas, Control 60 min [3]: 0.82 ± 0.21 % ID/g | Radioactivity uptake, Plasma, Control 5 min [3]: 3.87 ± 0.90 % ID/g | Radioactivity uptake, Plasma, Control 30 min [3]: 6.82 ± 1.19 % ID/g | Radioactivity uptake, Plasma, Control 60 min [3]: 5.22 ± 0.73 % ID/g | Radioactivity uptake, Small intestine, Control 5 min [3]: 3.86 ± 2.64 % ID/g | Radioactivity uptake, Small intestine, Control 30 min [3]: 20.78 ± 3.28 % ID/g | Radioactivity uptake, Small intestine, Control 60 min [3]: 27.31 ± 2.44 % ID/g | Radioactivity uptake, Spleen, Control 5 min [3]: 10.42 ± 7.67 % ID/g | Radioactivity uptake, Spleen, Control 30 min [3]: 1.34 ± 0.10 % ID/g | Radioactivity uptake, Spleen, Control 60 min [3]: 0.68 ± 0.11 % ID/g | Radioactivity uptake, Stomach, Control 5 min [3]: 1.57 ± 1.18 % ID/g | Radioactivity uptake, Stomach, Control 30 min [3]: 2.09 ± 0.81 % ID/g | Radioactivity uptake, Stomach, Control 60 min [3]: 2.21 ± 0.43 % ID/g | Radioactivity uptake, Thymus, Control 5 min [3]: 2.30 ± 1.06 % ID/g | Radioactivity uptake, Thymus, Control 30 min [3]: 1.96 ± 0.22 % ID/g | Radioactivity uptake, Thymus, Control 60 min [3]: 1.04 ± 0.08 % ID/g

Source: publication PMC3856494, “Radiofluorination and biological evaluation of N-aryl-oxadiazolyl-propionamides as potential radioligands for PET imaging of cannabinoid CB2 receptors” (Organic and Medicinal Chemistry Letters, 2013)
